Entries after “also recorded” stand apart in the source; their conditions may differ.

The test system of one data set is Jurkat cells. The experiment in a line: Adaptation to G2 cell cycle arrest (G1 increment) in X-ray pre-arrested Jurkat cells, flow cytometry. Type of data set: cell-based, human. The settings on record: for IC50: Homo sapiens, Jurkat, 24 h, concentration causing half-maximal increase of % cells in G1 phase (G1 increment), Jurkat pre-arrested by 10 Gy X-ray, 24 hours with compound. The method, boiled down:
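Jurkat cells were G2-arrested by 10 Gy X-ray irradiation and held 24 h in 10% FCS/RPMI1640 at 37 °C. They were then exposed to compounds for a further 24 h. Propidium iodide staining and flow cytometry gave the %G1 cells, and IC50 (μM) is the concentration giving a half-maximal G1 increment.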

The test system of the next data set is ARH-77 cells. As to the kind of experiment: Survival of SCID mice with xenografts of ARH-77 cells. The following applies: for cytotoxicity against normal cells (the mouse graft host): administered intraperitoneally or orally to SCID mice with ARH-77 xenografts.

Description for ARH-77 cells: For the experiment shown in FIG. 6, mice received 1.9×10^6 ARH-77 cells by intraperitoneal transplantation. […] Mice treated with dexamethasone (“Dexa”) received an intraperitoneal injection of 2 mg/kg dexamethasone. Vehicle treated control animals received intraperitoneal vehicle injection. Each injection was performed on day 1, day 2 and day 3 after transplantation of ARH-77 cells.
For the experiment shown in FIG. 7, mice received 0.8×10^6 ARH-77 cells by intraperitoneal transplantation.
For the experiment shown in FIG. 8, mice received 4.1×10^6 ARH-77 cells by intraperitoneal transplantation.

On to `CC1=C(COCCC(C)(C)C)C(=O)N(Nc2ccc(C(F)(F)F)c(Cl)n2)C1=O` [Compound S03747, 3-[(3,3-dimethylbutoxy)methyl]-1-{[6-chloro-5-(trifluoromethyl) (2-pyridyl)]amino}-4-methylazoline-2,5-dione], for which, in the data set on Jurkat cells (Table 3), the IC50 was below 0.019 µM. The “cytotoxicity against normal cells (the mouse graft host)” value (shortened to “cytotoxicity against normal cells”) in the data set with ARH-77 cells is reported as “no detectable cytotoxicity against normal cells”.
Take `CCCCOCC1=C(C)C(=O)N(Nc2ccc(C(F)(F)F)c(Cl)n2)C1=O` [Compound S03518, 3-(butoxymethyl)-1-{[6-chloro-5-(trifluoromethyl)(2-pyridyl)]amino}-4-methylazoline-2,5-dione]: in the data set on Jurkat cells (Table 3), the IC50 stood at 0.02 µM. Besides, the “cytotoxicity against normal cells” value in the data set with ARH-77 cells is “no detectable cytotoxicity against normal cells”.
Turning to `CC1=C(CCC(=O)OC(C)(C)C)C(=O)N(Nc2ccc(C(F)(F)F)c(Cl)n2)C1=O` [Compound S01860, tert-butyl 3-(1-{[6-chloro-5-(trifluoromethyl)(2-pyridyl)]amino}-4-methyl-2,5-dioxoazolin-3-yl) propanoate], in the data set with Jurkat cells (Table 2), the IC50 is 0.03 µM. Also, the “percentage of cells in G1 phase” value in the data set on Jurkat cells (Jurkat cells pre-arrested at G2 by X-ray 10 Gy, 0.019 μM to 0.625 μM, 24 hours) is reported as “dose-dependent increase in the percentage of cells in G1 phase; also recorded: significant increase in the number of G1 cells”. For the same molecule, the “first decrease in survival, days after transplantation” value with ARH-77 cells (0.8×10^6 ARH-77 cells i.p., single oral administration 750 mg/kg on Day 1) turned out to be 70 days. Further, in the data set on ARH-77 cells (0.8×10^6 ARH-77 cells i.p., single oral administration 750 mg/kg on Day 1, control about 20%), the “survival at 85 days” value is reported as around 90%. Moreover, in the data set with ARH-77 cells, the “cytotoxicity against normal cells” value is “no detectable cytotoxicity against normal cells”.
As for `CCOCC1=C(C)C(=O)N(Nc2ccc(C(F)(F)F)c(Cl)n2)C1=O` [Compound S02366, 1-{[6-chloro-5-(trifluoromethyl) (2-pyridyl)]amino}-3-(ethoxymethyl)-4-methylazoline-2,5-dione], in the data set with Jurkat cells (Table 3), the IC50 was determined as 0.04 µM.
In the case of `CC1=C(C)C(=O)N(Nc2cc(CN3CCN(C(=O)c4ccccc4)CC3)c3ccc(Br)cc3n2)C1=O` [Compound S01699, 1-[(7-bromo-4-{[4-(phenylcarbonyl)piperazinyl]methyl}(2-quinolyl))amino]-3,4-dimethylazoline-2,5-dione], the IC50 with Jurkat cells (Table 2) is 0.625 µM.
As for `CC1=C(COCCC(C)C)C(=O)N(Nc2ccc(C(F)(F)F)c(Cl)n2)C1=O` [Compound S03405, 1-{[6-chloro-5-(trifluoromethyl)(2-pyridyl)]amino}-4-methyl-3-[(3-methylbutoxy)methyl]azoline-2,5-dione], the IC50 in the data set on Jurkat cells (Table 3) was below 0.019 µM. For the same molecule, in the data set on ARH-77 cells, the “cytotoxicity against normal cells” value is “no detectable cytotoxicity against normal cells”.
As for `COc1cccc(C(=O)N2CCN(Cc3cc(NN4C(=O)C(C)=C(C)C4=O)nc4cc(Br)ccc34)CC2)c1` [Compound S01925, 1-{[7-bromo-4-({4-[(3-methoxyphenyl)carbonyl]piperazinyl}methyl) (2-quinolyl)]amino}-3,4-dimethylazoline-2,5-dione], the IC50 in the data set with Jurkat cells (Table 2) came out at 0.156 µM.
Regarding `COCC1=C(C)C(=O)N(Nc2ccc(C(F)(F)F)c(Cl)n2)C1=O` [Compound S01599, 1-{[6-chloro-5-(trifluoromethyl)(2-pyridyl)]amino}-3-(methoxymethyl)-4-methylazoline-2,5-dione], in the data set with Jurkat cells (Table 2), the half-inhibitory concentration (IC50) was 0.12 µM.

The values are drawn from patent US8415357B2 (Canbas Co., Ltd., priority 2007, dated 2013).
